Common to all, as to format: cell-based, human
Data set [1] concerns CMT1A organoids. Description: g-ratio of myelinated axons by transmission electron microscopy in CMT1A organoids. The following applies: Day 25, TEM.
For data set [2], the system named is CMT1A organoids. Description: Myelin periodic line distance (myelin compaction) by transmission electron microscopy in CMT1A organoids.
Data set [3] relates to PI3K-Akt signaling pathway. Description: p-Akt/Akt protein level ratio normalized to β-actin in treated CMT1A iPSC-derived organoids. The following applies: Day 25, normalized to β-actin.

As for “shRNA-2: Short-hairpin RNA against human PMP22, region CDS (SEQ ID NO 10), Sigma Mission pLKO.1-library, lentivirally transduced (guide CCGGCCTGTTCTTCTGCCAACTCTTCTCGAGAAGAGTTGGCAGAAGAACAGGTTTTTG)”, the g-ratio of axons result in the data set with CMT1A organoids [1] is “significantly increased the g-ratio”. The results for the “myelin periodic line distance (myelin compaction)” value with CMT1A organoids [2] (high concentration (75 μL) of shRNA lentivirus) and in the data set on CMT1A organoids [2] (low concentration (25 μL) of shRNA lentivirus) were “restored the myelin periodic line distance back to control levels” and “partially improved myelin compaction”, respectively. Moreover, in data set [3], the p-Akt/Akt ratio entry is listed as “reduced p-Akt/Akt ratio could be reversed”.

Values taken from patent US20260258370A1, “METHOD FOR OBTAINING A NEUROMUSCULAR ORGANOID AND USE THEREOF” (Universiteit Antwerpen, priority 2021, published 2026).
